# Results reported in publication PMC11350809, “Targeting N-Acetylglucosaminidase in Staphylococcus aureus with Iminosugar Inhibitors” (Antibiotics, 2024).
# Like-named read-outs stand apart in the source and are kept apart here.
# Tests used:
# [1] = molecular target: α-Glucosidase (from baker's yeast); details: cited from earlier work
# [2] = molecular target: α-Galactosidase (from green coffee beans); details: cited from earlier work
# [3] = molecular target: β-Glucosidase (from almond); details: cited from earlier work
# [4] = molecular target: β-Galactosidase (from bovine liver); details: cited from earlier work
# naringinase (Nar) = details: cited from earlier work
# [5] = molecular target: human recombinant β-glucocerebrosidase (GBA); details: cited from earlier work
# [6] = molecular target: β-galactocerebrosidase (GALC); details: cited from earlier work
# S. aureus (ATCC 29213) = experiment: Minimal inhibitory concentration, broth microdilution; format: cell-based, Staphylococcus aureus; details: for MIC: Staphylococcus aureus, ATCC29213, broth microdilution, 20 h at 35 °C, read-out: MIC S. aureus ATCC29213; for antibacterial activity against S. aureus ATCC 29213: in words
# Experimental: (§1) The minimal inhibitory concentrations (MICs) were determined against the bacterial strains S. aureus (ATCC 29213) and E. coli (ATCC 25922), and the results are presented in Table S6.
# (§2) Antimicrobial testing was carried out by the broth microdilution method in a 96-well plate format following the CLSI guidelines and European Committee for Antimicrobial Susceptibility Testing (EUCAST) recommendations. Bacterial suspension of a specific bacterial strain equivalent to 0.5 McFarland turbidity standard was diluted with cation-adjusted Mueller Hinton broth to obtain a final inoculum of 10^5 CFU/mL. Compounds dissolved in 20% DMSO and inoculum were mixed together and incubated for 20 h at 35 °C. After incubation, the minimal inhibitory concentration (MIC) values were determined by visual inspection as the lowest dilution of compounds showing no turbidity. The MICs were determined against S. aureus (ATCC 29213) and E. coli (ATCC 25922) bacterial strains. Tetracycline was used as a positive control on every assay plate, showing MICs of 0.5 µg/mL and 1 µg/mL for S. aureus and E. coli, respectively.
# E. coli (ATCC 25922) = experiment: Minimal inhibitory concentration, broth microdilution (negative control strain); format: cell-based; details: Escherichia coli, ATCC25922; broth microdilution, 20 h at 35 °C; read-out: MIC E. coli ATCC25922
# Experimental: as §1, §2
# [7] = pH 7.2, p-nitrophenyl-α-D-glucopyranoside, footnote *
# [8] = pH 6.8, p-nitrophenyl-α-D-galactopyranoside, footnote *
# [9] = pH 5.0, p-nitrophenyl-β-D-glucopyranoside, footnote *
# [10] = pH 5.2, footnote *, read-out: IC50 GBA pH 5.2
# [11] = pH 7.0, footnote *, read-out: IC50 GBA pH 7.0
# [12] = pH 7.2, p-nitrophenyl-a-d-glucopyranoside, footnote **
# [13] = pH 6.8, p-nitrophenyl-a-d-galactopyranoside, footnote **
# [14] = pH 5.0, p-nitrophenyl-b-d-glucopyranoside, footnote **
# [15] = pH 5.2, footnote **, read-out: IC50 GBA pH 5.2
# [16] = pH 7.0, footnote **, read-out: IC50 GBA pH 7.0
# [17] = pH 7.2, p-nitrophenyl-α-D-glucopyranoside, footnote ***
# [18] = pH 6.8, p-nitrophenyl-α-D-galactopyranoside, footnote ***
# [19] = pH 5.0, p-nitrophenyl-β-D-glucopyranoside, footnote ***
SMILES,"IC50 [1, 7] [µM]","IC50 [2, 8] [µM]","IC50 [3, 9] [µM]",IC50 ([4]; footnote *) [µM],IC50 (naringinase (Nar); footnote *) [µM],IC50 ([6]; footnote *) [µM],"IC50 [1, 12] [µM]","IC50 [2, 13] [µM]","IC50 [3, 14] [µM]",IC50 ([4]; footnote **) [µM],IC50 (naringinase (Nar); footnote **) [µM],"IC50 [5, 15] [µM]","IC50 [5, 16] [µM]",IC50 ([6]; footnote **) [µM],MIC (S. aureus (ATCC 29213)) [µM],MIC (E. coli (ATCC 25922)) [µM],other results
CCCCCCCCCCCCN=C1OCC2C(O)C(O)C(O)CN12 (stereo not shown) [Compound 14],> 100,> 100,1.6 ± 0.1,< 0.1,0.1 ± 0.01,> 10,,,,,,,,,,,"IC50 [5, 10]: 0.01 ± 0.001 µM; IC50 [5, 11]: 0.001 ± 0.001 µM"
CCCCCCCCNC(=N)N1CC(O)C(O)C(O)C1 (stereo not shown) [Compound 15],,,,,,,> 100,> 100,38.1 ± 1.5,< 0.1,53 ± 2.2,0.99 ± 0.09,0.24 ± 0.02,> 10,,,
CCCCCCCCNC(=O)N1CC(O)C(O)C(O)C1 (stereo not shown) [Compound 7],,,,,,,> 100,> 100,> 100,19.6 ± 1.5,> 100,> 10,> 10,> 10,125,> 500,antibacterial activity against S. aureus ATCC 29213 (S. aureus (ATCC 29213)): modest antibacterial activities
CCCCCCCCCCN(CCCCCCCCCC)C(=O)CNC(=O)N1CC(O)C(O)C(O)C1 (stereo not shown) [Compound 16],,,,,,,> 100,> 100,> 100,12.5 ± 2.9,> 100,> 10,> 10,> 10,,,
"CCCCCCCCCN1C[C@H](O)[C@@H](O)[C@H](O)[C@H]1CO [NN-DNJ, reference compound]",> 100,> 100,> 100,> 100,0.1 ± 0.01,> 10,> 100,> 100,> 100,> 100,0.2 ± 0.01,,,> 10,,,"IC50 [1, 17]: > 30 µM; IC50 [2, 18]: > 30 µM; IC50 [3, 19]: > 30 µM; IC50 ([4]; footnote ***): > 30 µM; IC50 (naringinase (Nar); footnote ***): 0.1 ± 0.01 µM; IC50 ([6]; footnote ***): > 30 µM"
CCCCCCCCOC1OCC(CNC(=N)N2CC(O)C(O)C(O)C2)O1 (stereo not shown) [Compound 17],,,,,,,,,,,,,,,,,"IC50 [1, 17]: > 30 µM; IC50 [2, 18]: > 30 µM; IC50 [3, 19]: 14.6 ± 0.6 µM; IC50 ([4]; footnote ***): > 30 µM; IC50 (naringinase (Nar); footnote ***): > 30 µM; IC50 ([5]; pH 5.2, footnote ***, read-out: IC50 GBA pH 5.2): > 30 µM; IC50 ([5]; pH 7.0, footnote ***, read-out: IC50 GBA pH 7.0): 0.03 ± 0.01 µM; IC50 ([6]; footnote ***): > 30 µM"
CCCCCCCCCCCCCCNC(=O)N1CC(O)C(O)C(O)C1 (stereo not shown) [Compound 10],,,,,,,> 100,> 100,> 100,34.2 ± 1.9,> 100,> 10,> 10,> 10,> 500,> 500,
CCCCCCCCCCN(CCCCCCCCCC)C(=O)CN=C1OCC2C(O)C(O)C(O)CN12 (stereo not shown) [Compound 2],> 100,> 100,> 100,0.9 ± 0.1,0.5 ± 0.01,> 10,,,,,,,,,125,> 500,"antibacterial activity against S. aureus ATCC 29213 (S. aureus (ATCC 29213)): modest antibacterial activities; IC50 [5, 10]: 0.01 ± 0.001 µM; IC50 [5, 11]: 0.002 ± 0.001 µM"
